“Also recorded” adds a separate entry of the source.
Columns and labels:
[1] = test system: plants; conditions: background statement; cited from earlier work
[2] = test system: T-47D human breast ductal adenocarcinoma cells; assay: Cell growth and cell number of breast cancer cells; type: cell-based; conditions: for cell growth arrest and cell death: summary statement, dose dependent
Experimental: (§1) In the following examples, all referenced cell lines were purchased from ATCC. T47D cells were maintained in Dulbecco's Modified Eagle medium (DMEM) (purchased from Life Technologies, Inc.) supplemented with 10% fetal calf serum (purchased from Life Technologies, Inc.), insulin (5 μg/ml), and antibiotics. CRL-5985, CRL-2632 and Raji cells were maintained in RPMI-1640 medium supplemented with 10% fetal calf serum (purchased from Life Technologies, Inc.) and antibiotics. Western blot analysis was performed by using phospho-serine 807/811-Rb, Rb, cyclin D1, cyclin D3, cdk-2, cdk-4, bcl-2, phospho-p38, bax, bak, PARP (cell signaling technology), MCL-1 (purchased from Biosource International) and beta-tubulin antibodies (purchased from Becton-Dickenson). Proteins were separated using an 8-10% SDS-polyacrylamide gel electrophoresis (SDS-PAGE), transferred to Immobilon-P membranes and immunoblotted with antibodies using the ECL detection system.
T-47D human breast ductal adenocarcinoma cells were treated with 12-oxo-PDA and measured at three and eight-day intervals.
(§2) Cell lines CRL-2632 (B-cell lymphoma cells), CRL-5985 (human lung adenocarcinoma cells) and T-47D (human breast ductal adenocarcinoma cells) were exposed to 12-OPDA over an eight-day period. Cell viability and cell growth were measured versus controls.
(§3) The effects on cell growth and number for T-47D human breast cancer cells and CRL-2632 human malignant diffuse large B-cell lymphoma cells following treatment with 12-oxo-PDA and jasmonic acid (“JA”) over a four-day period were measured.

[3] = test system: CRL-5985 human lung adenocarcinoma cells; assay: Cell growth, cell number and morphology of lung cancer cells; type: cell-based; conditions: for cell growth arrest and cell death: CRL-5985, summary statement, dose dependent
Experimental: as §1
CRL-5985 human lung adenocarcinoma cells were treated with 12-oxo-PDA and measured at three and eight-day intervals.
Lung cancer cells were treated with concentrations of 12-oxo-PDA ranging from 15 μM to 50 μM (versus an untreated control sample).
as §2

[4] = test system: CRL-2632 human malignant diffuse large B-cell lymphoma cells; assay: Cell growth, cell number and morphology of lymphoma cells; type: cell-based; conditions: for cell growth arrest and cell death: CRL-2632, summary statement, dose dependent
Experimental: as §1, §2, §3
(§4) CRL-2632 diffuse large B-cell lymphoma cells (and Burkitt's lymphoma cells (“Raji”)) were treated with 12-oxo-PDA and a synthetic coronatine analog (0.5 mM).

[5] = test system: CRL-5985 (human lung adenocarcinoma cells); assay: Cell viability, trypan blue exclusion assay; type: cell-based; conditions: CRL-5985, eight-day period, trypan blue (FIG. 5)
Experimental: as §1, §2

[6] = test system: T-47D (human breast ductal adenocarcinoma cells); assay: Cell viability, trypan blue exclusion assay; type: cell-based; conditions: eight-day period, trypan blue (FIG. 5)
Experimental: as §1, §2

[7] = test system: CRL-2632 (B-cell lymphoma cells); assay: Cell viability, trypan blue exclusion assay; type: cell-based, human; conditions: CRL-2632, eight-day period, trypan blue (FIG. 5)
Experimental: as §1, §2

[8] = test system: cyclin D1; assay: Western blot, cyclin D1 expression in T-47D cells; type: cell-based, human; conditions: 20 μM, Western blot (FIG. 9)
Experimental: as §1
(§5) Hyperphosphorylation of Rb is a critical process and component for regulating the cell cycle. The phosphorylation of Rb enables cells to pass through particular cell cycle checkpoints and to enter the S phase of cell cycle. […] Similarly, expression of β-tubulin and phosphorylation of p38 MAPK were unaffected.

[9] = test system: retinoblastoma tumor suppressor protein (Rb); assay: Western blot, Rb phosphorylation in T-47D cells; type: cell-based, human; conditions: 20 μM
Experimental: as §1, §5

[10] = test system: β-tubulin; assay: Western blot, β-tubulin expression in T-47D cells; type: cell-based, human; conditions: 20 μM
Experimental: as §1, §5

[11] = test system: p38 MAPK; assay: Western blot, p38 MAPK phosphorylation in T-47D cells; type: cell-based, human; conditions: 20 μM
Experimental: as §1, §5

[12] = test system: cyclin D1 mRNA; assay: Real-time RT-PCR in T-47D cells, cyclin D1; type: cell-based, human; conditions: 25 uM, 48 hours, relative to untreated (ethanol) cells (FIG. 10)
Experimental: (§6) For real-time RT-PCR experiments T-47D cells were treated with ethanol (control) or with 25 uM 12-OPDA for 48 hours. Total RNA was isolated using TRIzol reagent (Invitrogen, Carlsbad, Calif.) followed by purification on RNeasy columns (Qiagen, Palo Alto, Calif.). For quantitative real-time RT-PCR analyses, total RNA from each sample was reverse transcribed with MuLV reverse transcriptase (Applied Biosystems, Foster City, Calif.) and random hexamer primers. The SYBR Green PCR Kit (Applied Biosystems) was used for quantitative real-time RT-PCR analysis. The primers for human ubuquitin, cyclin D1, p27 and c-fos were designed using Primer Express software (Applied Biosystems). 12-oxo-PDA was purchased from Larodon Fine Chemicals AB, Sweden. Jasmonic acid was purchased from Sigma-Aldrich Co. The indanoyl amino acid conjugate of coronatine (i.e., synthetic 6-azido-1-oxo-indanoyl isoleucine) was obtained from Dr. Wilhelm Boland (Max Planck Institute, Germany).
(§7) T-47D cells were exposed to 12-oxo-PDA in an effort to determine the effect of 12-oxo-PDA on gene expression. FIGS. 10, 11 and 12 show 12-OPDA mediated regulation of cyclin D1, p27 and c-fos mRNA levels, respectively, in T-47D cells compared to ethanol treatment alone. […] Thus, it appears that 12-oxo-PDA has a direct regulatory/inhibitory effect on the cyclin D1 and Rb protein. […]

[13] = test system: p27 mRNA; assay: Real-time RT-PCR in T-47D cells, p27; type: cell-based, human; conditions: 25 uM, 48 hours, vs ethanol (FIG. 11)
Experimental: as §6, §7

[14] = test system: C-FOS mRNA; assay: Real-time RT-PCR in T-47D cells, c-fos; type: cell-based, human; conditions: 25 uM, 48 hours, vs ethanol (FIG. 12)
Experimental: as §6, §7

[15] = test system: CRL-2632 diffuse large B-cell lymphoma cells; assay: Apoptosis / PARP cleavage immunoblot in CRL-2632 cells; type: cell-based, human; conditions: for growth arrest and apoptosis: CRL-2632, synthetic coronatine analog 0.5 mM (FIG. 15)
Experimental: as §1
Regulated cell apoptosis is essential for the development and maintenance of the immune system. The highly regulated anti-apoptotic MCL-1 protein appears to enhance short-term survival and functions in genotoxic cell death. […] Thus, deletion of MCL-1 during early lymphocyte differentiation increases apoptosis and arrests the development of B and T-lymphocytes. In this regard, one hallmark of apoptosis is activation of the caspases (e.g., caspase-3, caspase-6, and caspase-7). Activation of caspases leads to the cleavage of a […] PARP protein into an 89-kDa fragment.
Cells were incubated in the presence of 12-oxo-PDA (20 μM) for between one and six hours. The cells were then washed and lysed to extract total proteins. Thereafter, 30 μg extracts were resolved on 8% SDS-PAGE gel and probed with anti-PARP, anti-MCL-1, anti-bcl-2, anti-bax and anti-bak antibodies. […] Similarly, FIG. 13 illustrates the effects of 12-oxo-PDA treatment on apoptosis related proteins (i.e., Bcl-2, MCL-1, Bax and Bak proteins). […]

[16] = test system: MCL-1 protein; assay: Immunoblot, MCL-1 expression in CRL-2632 cells; type: cell-based, human; conditions: for expression of MCL-1 protein: CRL-2632, synthetic coronatine analog 0.5 mM (FIG. 15)
Experimental: as §1
(§8) Cells were incubated in the presence of 12-oxo-PDA (20 μM) for between one and six hours. The cells were then washed and lysed to extract total proteins. Thereafter, 30 μg extracts were resolved on 8% SDS-PAGE gel and probed with anti-PARP, anti-MCL-1, anti-bcl-2, anti-bax and anti-bak antibodies. […] Similarly, FIG. 13 illustrates the effects of 12-oxo-PDA treatment on apoptosis related proteins (i.e., Bcl-2, MCL-1, Bax and Bak proteins).
as §4

[17] = test system: Bcl-2; assay: Immunoblot, Bcl-2 expression in CRL-2632 cells; type: cell-based, human; conditions: CRL-2632, 20 μM, one to six hours (FIG. 13)
Experimental: as §1, §8

[18] = test system: Bax; assay: Immunoblot, Bax expression in CRL-2632 cells; type: cell-based, human; conditions: CRL-2632, 20 μM, one to six hours (FIG. 13)
Experimental: as §1, §8

[19] = test system: Bak; assay: Immunoblot, Bak expression in CRL-2632 cells; type: cell-based, human; conditions: CRL-2632, 20 μM, one to six hours (FIG. 13)
Experimental: as §1, §8

[20] = test system: Burkitt's lymphoma cells (Raji); assay: Growth arrest and apoptosis in Raji cells; type: cell-based; conditions: synthetic coronatine analog 0.5 mM (FIG. 15)
Experimental: as §1, §4

[21] = test system: MCL-1; assay: MCL-1 expression in Raji cells; type: cell-based; conditions: synthetic coronatine analog 0.5 mM (FIG. 15)
Experimental: as §1, §4

[22] = test system: tubulin; assay: Tubulin polymerization in CRL-2632 cells (soluble/insoluble fractions, Western blot); type: cell-based, human; conditions: CRL-2632, 20 μM, one to six hours (FIG. 16)
Experimental: as §1
The increase in insoluble tubulin fractions indicates polymerization of tubulin in treated cells.

[23] = test system: cancer cells; assay: Observations on treated cancer cells (Oil Red O staining, removal from culture medium); type: cell-based
Text: Rather, it appears that 12-oxo-PDA (and the related compounds) irreversibly interferes with the cellular mechanisms involved in cell growth, differentiation and the interaction between the cells with the extracellular matrix.

[24] = CRL-2632, four-day period (FIG. 8)

SMILES: CC[C@H]1C=C(C(=O)N[C@@]2(C(=O)O)C[C@@H]2CC)[C@H]2CCC(=O)[C@H]2C1 (stereo in doubt) [Coronatine]
- activation of plant stress signaling (volatile emission, tendril coiling) [1]: can activate the stress signaling processes in plants

SMILES: CC/C=C\C[C@@H]1C(=O)C=C[C@@H]1CCCCCCCC(=O)O [Formula 12-oxo-PDA, 12-oxo-phytodienoic acid]
- decrease in cell number ([2]; eight-day period, vs untreated samples (FIG. 6)): three-fold
- total cell number over treatment period ([2]; four-day period (FIG. 7)): decrease in total cell count
- cell growth arrest and cell death [2]: arrests cell growth and induces cell death
- cell growth and accumulation ([2]; three and eight-day intervals, vs untreated control (FIG. 1)): significant decrease in cell growth and accumulation
- decrease in cell number ([3]; CRL-5985, eight-day period, vs untreated samples (FIG. 6)): five-fold
- cell growth arrest and cell death [3]: arrests cell growth and induces cell death
- morphological changes ([3]; CRL-5985, three and eight-day intervals (FIG. 2)): ceased three-dimensional growth patterns and became more diffuse and single layered
- cell growth ([3]; CRL-5985, three and eight-day intervals, vs control (FIG. 2)): significant decrease in cell growth
- cell growth, concentration dependence ([3]; lung cancer cells, 15 μM to 50 μM, eight days (FIG. 3)): decrease in cell growth proportional to the concentration
- decrease in total cell number ([4]; CRL-2632, eight-day period, vs untreated samples (FIG. 6)): ten-fold
- total cell number over treatment period [4, 24]: decrease in total cell count
- cell growth arrest and cell death [4]: arrests cell growth and induces cell death
- morphological changes ([4]; CRL-2632, two and eight-day intervals (FIG. 4)): morphological changes
- cell viability [5]: significant inhibitory effect
- cell viability [6]: significant inhibitory effect
- cell viability [7]: particularly effective
- cyclin D1 expression [8]: inhibition of cyclin D1 expression
- total Rb ([9]; Western blot): remained unchanged
- Rb phosphorylation at the 807 and 811 serine residues ([9]; phospho-specific Rb antibody (FIG. 9)): inhibition of the hyperphosphorylation; also recorded: dramatically inhibited
- expression of β-tubulin [10]: unaffected
- phosphorylation of p38 MAPK [11]: unaffected
- decrease in cyclin D1 mRNA levels [12]: greater than twenty-fold
- p27 mRNA levels [13]: no significant changes
- C-FOS mRNA levels [14]: no significant changes
- cleavage of PARP ([15]; CRL-2632, 20 μM, one to six hours, immunoblot): time-dependent cleavage of PARP
- growth arrest and apoptosis [15]: arrest growth and induce apoptosis
- expression of MCL-1 ([16]; CRL-2632, 20 μM, one to six hours (FIG. 13)): inhibited the expression of MCL-1
- expression of MCL-1 protein [16]: down-regulated expression of MCL-1
- expression of Bcl-2 [17]: no effect
- expression of Bax [18]: no effect
- expression of Bak [19]: no effect
- growth arrest and apoptosis [20]: arrest growth and induce apoptosis
- expression of MCL-1 [21]: down-regulated expression of MCL-1
- tubulin polymerization (soluble vs insoluble tubulin fractions) [22]: induces tubulin polymerization
- lipid accumulation in the cytoplasm ([23]; Oil Red O staining): resulted in lipid accumulation in the cytoplasm
- cell growth after removal of compound from culture medium ([23]; washout): did not restore cell growth

SMILES: CC/C=C\C[C@H]1C(=O)CC[C@@H]1CC(=O)O [jasmonic acid, Jasmonic acid, reference compound]
- growth inhibition relative to untreated control ([2]; four-day period (FIG. 7)): some growth inhibition
- total cell number over treatment period ([2]; four-day period (FIG. 7)): net increase in total tumor cell number
- cell growth arrest and cell death [2]: fails to be as effective
- cell growth arrest and cell death [3]: fails to be as effective
- growth inhibition relative to untreated control [4, 24]: some growth inhibition
- total cell number over treatment period [4, 24]: net increase in total tumor cell number
- cell growth arrest and cell death [4]: fails to be as effective

SMILES: CC[C@H](C)[C@H](NC(=O)c1cc(N=[N+]=[N-])cc2c1CCC2=O)C(=O)OC [synthetic coronatine]
- growth of CRL-2632 cells (growth ratio over ethanol control) ([4]; CRL-2632 (FIG. 14)): inhibit growth
- growth arrest and apoptosis [15]: arrest growth and induce apoptosis
- expression of MCL-1 protein [16]: down regulate the expression of the MCL-1 protein
- growth arrest and apoptosis [20]: arrest growth and induce apoptosis
- expression of MCL-1 [21]: down-regulated expression of MCL-1
- activation of plant stress signaling (volatile emission, tendril coiling) [1]: can induce volatile emissions and/or tendril coiling
